Biological target: DYNLL1 (dynein light chain type 1) (Homo sapiens, UniProt P63167)
Assay: isothermal titration calorimetry
Assay type: binding

Chain of DYNLL1 (dynein light chain type 1) (P63167 whole entry): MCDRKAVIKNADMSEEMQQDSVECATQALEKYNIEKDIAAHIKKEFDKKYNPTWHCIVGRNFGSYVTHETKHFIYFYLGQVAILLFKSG

Compound: C=C(C)[C@@H](CC[C@]1(C)O[C@@H]([C@](C)(O)[C@@H]2CC[C@H]3O[C@@H]([C@]4(C)CC[C@@H](Br)C(C)(C)O4)CC[C@]3(C)O2)C[C@H]1O)OC [1a, aplysqualenol A]
- Kd: 840 ± 310 nM

Reference: publication PMC3582901 (Angewandte Chemie (International ed. in English), 2011)
